Assay results taken from patent US20220340951A1, “MEASURING THE ANTIMICROBIAL SUSCEPTIBILITY OF MICROBES” (priority 2019, published 2022).
Converted amounts (≈) assume the structure as drawn. “Also recorded” adds a separate entry of the source.

Assays:
[1] = Antibiotic screening: CV, EIS and DPV of antibiotic solutions (without gels) on gold screen printed electrode; format: physicochemical; conditions: antibiotic at typical working concentration, no gel; for Phase / Z at 100 kHz: EIS; for CDL / RSOLN: fitted EIS
Protocol: CV measurements were performed by sweeping the potential between −0.3 V to 0.5 V with reference to the Ag electrode three times. Analysis was performed using the third measurement. Electrodes were also characterised using differential pulse voltammetry (DPV) across the same potential range as CV. Peak current (Ipk) was extracted from the DPV measurement. Electrodes were also characterised using EIS. […] The Nyquist and Bode impedance plots that were generated were fitted to the Randles' equivalent circuit to extract various impedance parameters. […] A wide spectrum of antibiotics were tested including amoxicillin, oxacillin, methicillin, ampicillin, chloramphenicol, gentamicin, streptomycin and carbenicillin. […] Amoxicillin was then tested in an agarose gel with and without FF-C present (FIG. 2 (b)). […] The majority of the parameters are taken from fitted EIS data alongside Ipk from DPV measurements.

[2] = test system: Staphylococcus aureus (ATCC 29213); assay: Electrochemical (EIS) bacterial growth profile on antibiotic-infused gel-modified electrode; format: cell-based; conditions: for Z at 100 kHz growth profile compared with baseline (no bacteria): antibiotic 8 μg/ml in gel, up to 150 minutes
[3] = test system: methicillin-resistant Staphylococcus aureus (MRSA: ATCC 43300); assay: Electrochemical (EIS/DPV) bacterial growth profile on antibiotic-infused gel-modified electrode; format: cell-based
sensitive S. aureus = assay: Gel streak plate growth (1 wt % agarose + LB); format: cell-based, Staphylococcus aureus; conditions: amoxicillin 8 μg/ml; with or without FF-C
[4] = test system: methicillin-resistant S. aureus (MRSA); assay: Gel streak plate growth (1 wt % agarose + LB Broth + FF-C); format: cell-based, Staphylococcus aureus; conditions: amoxicillin 8 μg/ml
MRSA = assay: Minimum inhibitory concentration by two-fold broth microdilution; format: cell-based; conditions: Staphylococcus aureus; strain not stated explicitly; printed in the MRSA context
E. coli (ATCC 25922) = assay: Minimum inhibitory concentration of streptomycin as used in E. coli gels; format: cell-based; conditions: Escherichia coli, ATCC25922

Compound | DPV Ipk [1] | Phase [1] | Z at 100 kHz [1] | CDL [1] | RSOLN [1] | baseline-subtracted Z at 100 kHz over time ([2]; amoxicillin-laden gel 8 μg/ml, between 30 and 100 minutes) | Z at 100 kHz growth profile compared with baseline (no bacteria) [2] | change in Z (baseline subtracted) ([3]; amoxicillin 8 μg/ml gel, over 30-100 minutes) | Z at 100 kHz growth profile compared with baseline (no bacteria) ([3]; amoxicillin 8 μg/ml in gel) | DPV peak current (Ipk) growth profile, baseline subtracted ([3]; amoxicillin 50 μg/ml gel) | change in Z (baseline subtracted) ([3]; amoxicillin 50 μg/ml gel, 30-100 minutes) | Z at 100 kHz growth profile compared with baseline (no bacteria) ([3]; amoxicillin 50 μg/ml in gel) | growth on streak plate (sensitive S. aureus) | growth on streak plate [4] | MIC (MRSA) | baseline-subtracted Z at 100 kHz over time ([2]; oxacillin gel 8 μg/ml, up to ~70 minutes) | Z growth curves for gels with and without oxacillin ([3]; oxacillin 8 μg/ml gel) | MIC (E. coli (ATCC 25922))
CC1(C)S[C@@H]2[C@H](NC(=O)[C@H](N)c3ccc(O)cc3)C(=O)N2[C@H]1C(=O)O [amoxicillin] | 0.02 μA | 82.74 ° | 21.34 kΩ | 0.53 μF | 143.30 kΩ | unchanging | almost identical response to the baseline response | ~11 Ω | does not imitate the baseline | almost completely flat | virtually no change in Z | very similar profile to the baseline measurement | completely inhibited; also recorded: unable to grow | displays growth either in the presence or absence of amoxicillin | ~8 mg/L (≈ 21.9 µM) | – | – | –
CC1(C)S[C@@H]2[C@H](NC(=O)[C@H](N)c3ccccc3)C(=O)N2[C@H]1C(=O)O [ampicillin] | 0 μA | 67.63 ° | 10.88 kΩ | 0.38 μF | 40.93 kΩ | – | – | – | – | – | – | – | – | – | – | – | – | –
CC1(C)S[C@@H]2[C@H](NC(=O)C(C(=O)O)c3ccccc3)C(=O)N2[C@H]1C(=O)O (stereo partly drawn) [carbenicillin] | 0 μA | 46.56 ° | 7.54 kΩ | 0.44 μF | 11.83 kΩ | – | – | – | – | – | – | – | – | – | – | – | – | –
O=C(N[C@H](CO)[C@H](O)c1ccc([N+](=O)[O-])cc1)C(Cl)Cl [chloramphenicol] | 0.31 μA | 76.20 ° | 19.06 kΩ | 0.41 μF | 94.39 kΩ | – | – | – | – | – | – | – | – | – | – | – | – | –
COc1cccc(OC)c1C(=O)N[C@@H]1C(=O)N2[C@@H]1SC(C)(C)[C@@H]2C(=O)O [methicillin] | 0.06 μA | 61.43 ° | 15.92 kΩ | 0.53 μF | 67.30 kΩ | – | – | – | – | – | – | – | – | – | – | – | – | –
Cc1onc(-c2ccccc2)c1C(=O)N[C@@H]1C(=O)N2[C@@H]1SC(C)(C)[C@@H]2C(=O)O [oxacillin] | 0 μA | 111.17 ° | 22.79 kΩ | 0.28 μF | 49.81 kΩ | – | very similar Z profile to the baseline measurement | – | – | – | – | – | – | – | – | remains fairly flat | look very similar for gels with and without oxacillin | –
[H]/N=C(/N)N[C@H]1[C@H](O)[C@@H](O)[C@H](O[C@@H]2O[C@@H](C)[C@](O)(C=O)[C@H]2O[C@@H]2O[C@@H](CO)[C@H](O)[C@@H](O)[C@@H]2NC)[C@@H](N/C(N)=N\[H])[C@@H]1O [streptomycin] | 0 μA | 58.51 ° | 16.45 kΩ | 0.58 μF | 55.85 kΩ | – | – | – | – | – | – | – | – | – | – | – | – | ~4 mg/L (≈ 6.88 µM)
gentamicin | 0.01 μA | 31.68 ° | 6.05 kΩ | 0.77 μF | 7.97 kΩ | – | – | – | – | – | – | – | – | – | – | – | – | –
